Assay results: paper PMC9694494, “Resveratrol/Hydrazone Hybrids: Synthesis and Chemopreventive Activity against Colorectal Cancer Cells” (Pharmaceutics, 2022)
Like-named read-outs stand apart in the source and are kept apart here.

How the values were obtained:
SW480 cells = assay: SRB cell viability (cytotoxicity), SW480; type: cell-based, human; details: for Selectivity Index SI1: CHO-K1/SW480 IC50 ratio; for Selectivity Index SI2: HaCaT/SW480 IC50 ratio; for IC50: Homo sapiens, SW480, SRB, read-out: IC50 ± SEM SW480
Procedure: (§1) Human colon cancer cell lines (SW480 and SW620), together with nonmalignant cells (CHO-K1 and HaCaT) were used to study the biological activity. Cells were purchased from the European Collection of Authenticated Cell Cultures (ECACC, UK). Dulbecco’s Modified Eagle Medium (DMEM) containing heat-inactivated (56 °C) horse serum (10%), non-essential amino acids (1%) and antibiotics (penicillin/streptomycin, 1%) (Gibco Invitrogen, Carlsbad, CA, USA) was used to maintain the cells, reducing the horse serum to 3%, and, adding insulin ([…]), transferrin ([…]) and selenium (5 ng/mL) (ITS-defined medium; Gibco, Invitrogen, Carlsbad, CA, USA) for all the experiments.
(§2) The colorimetric test with Sulforhodamine B (SRB) was used to evaluate cell viability. Cell density was adjusted to seed 20.000 cells/well in 96-well tissue culture plates. Cells were first incubated for 24 h and then treated with the synthesized hybrids, the lead compounds (PIH and resveratrol), and the reference drug (5-FU) (concentrations between 0.01 and 200 µM), using DMSO (below 1%) as vehicle control. The optimum conditions were 37 °C and 5% CO2. After the end of each treatment, cold trichloroacetic acid (MERCK, 50% v/v) was added and preserved for one hour at 4 °C, to fix the cells. Then, cell proteins were stained with 0.4% (w/v) SRB (Sigma-Aldrich, St. Louis, MO, USA), and subsequently washed with acetic acid (1%) to remove unbound SRB. After air-drying, protein-bound SRB was solubilized in 10 mM Tris-base before reading the absorbance at 492 nm in a microplate reader (Mindray MR-96A). All experiments were performed at least three times.

SW620 cells = assay: SRB cell viability (cytotoxicity), SW620; type: cell-based, human; details: for Selectivity Index SI3: CHO-K1/SW620 IC50 ratio; for Selectivity Index SI4: HaCaT/SW620 IC50 ratio; for IC50: Homo sapiens, SW-620, SRB, read-out: IC50 ± SEM SW620
Procedure: as §1, §2

HCT 116 cell line = details: read-out: IC50 antiproliferative activity; cited from earlier work
HaCaT cells = assay: SRB cell viability (cytotoxicity), HaCaT; type: cell-based; details: Homo sapiens, HaCaT nonmalignant cells, read-out: IC50 ± SEM HACAT
Procedure: as §1, §2

CHO-K1 cells = assay: SRB cell viability (cytotoxicity), CHO-K1; type: cell-based; details: Cricetulus griseus, CHO-K1 nonmalignant cells, read-out: IC50 ± SEM CHO
Procedure: as §1, §2

SMILES | Selectivity Index SI1 (SW480 cells; 24 H) | Selectivity Index SI1 (SW480 cells; 48 H) | Selectivity Index SI2 (SW480 cells; 48 H) | Selectivity Index SI3 (SW620 cells; 24 H) | Selectivity Index SI3 (SW620 cells; 48 H) | Selectivity Index SI4 (SW620 cells; 48 H) | IC50 (HCT 116 cell line) | IC50 (HaCaT cells; 24 H) | IC50 (CHO-K1 cells; 24 H) | IC50 (CHO-K1 cells; 48 H) | Selectivity Index SI2 (SW480 cells; 24 H) | IC50 (SW480 cells; 24 H) | IC50 (SW480 cells; 48 H) | Selectivity Index SI4 (SW620 cells; 24 H) | IC50 (SW620 cells; 24 H) | IC50 (SW620 cells; 48 H) | melting point | IC50 (HaCaT cells; 48 H)
O=c1[nH]cc(F)c(=O)[nH]1 [5-FU, 5-fluorouracil, reference compound] | 0.35 | 0.99 | 0.68 | 0.59 | 0.96 | 0.66 | 5 µM | > 1000 µM |  |  |  |  |  |  |  |  |  | 
COc1cccc(C(=O)N/N=C/c2c(O)cc(O)cc2/C=C/c2ccc(O)cc2)c1 [6a, N′-((E)-2,4-dihydroxy-6-((E)-4-hydroxystyryl)benzylidene)-3-methoxybenzohydrazide] | 0.86 | 0.52 | 0.09 | 0.16 | 0.31 | 0.05 |  | 47.5 ± 1.15 µM | 28.4 ± 1.48 µM | 13 ± 1.3 µM | 1.44 | 33 ± 2.13 µM | 24.9 ± 2.8 µM | 0.28 | 172 ± 9 µM | 41.5 ± 1.2 µM | 248 to 250 °C | 2.2 ± 0.2 µM
COc1ccc(C(=O)N/N=C/c2c(O)cc(O)cc2/C=C/c2ccc(O)cc2)cc1 [6b, N′-((E)-2,4-dihydroxy-6-((E)-4-hydroxystyryl)benzylidene)-4-methoxybenzohydrazide] |  |  |  |  |  |  |  | 36.9 ± 3.53 µM | 23.4 ± 1.83 µM | 14.4 ± 1.7 µM |  | 36.1 ± 1.97 µM | 11.3 ± 2.3 µM |  | 160 ± 9.4 µM | 37.6 ± 2.9 µM |  | 13.9 ± 0.7 µM
O=C(N/N=C/c1c(O)cc(O)cc1/C=C/c1ccc(O)cc1)c1ccc(F)cc1 [6c, N′-((E)-2,4-dihydroxy-6-((E)-4-hydroxystyryl)benzylidene)-4-fluorobenzohydrazide] | 0.77 | 1.11 | 1.35 | 0.39 | 0.96 |  |  | 32.8 ± 1.33 µM | 22.6 ± 2.38 µM | 12 ± 1.6 µM | 1.12 | 29.2 ± 3.55 µM | 10.8 ± 2 µM | 0.57 | 57.7 ± 3.6 µM | 12.5 ± 1 µM |  | 14.6 ± 0.8 µM
COc1cccc(C(=O)N/N=C/c2c(O)cc(O)cc2/C=C/c2ccc(O)cc2)c1OC [6d, N′-((E)-2,4-dihydroxy-6-((E)-4-hydroxystyryl)benzylidene)-2,3-dimethoxybenzohydrazide] |  |  |  |  |  |  |  | 49.7 ± 1.96 µM | 35.5 ± 2.36 µM | 22.4 ± 2.7 µM |  | 34.8 ± 3.31 µM | 20.5 ± 1.9 µM |  | 171 ± 8.7 µM | 49.9 ± 2.1 µM |  | 2.95 ± 0.2 µM
COc1ccc(OC)c(C(=O)N/N=C/c2c(O)cc(O)cc2/C=C/c2ccc(O)cc2)c1 [6f, N′-((E)-2,4-dihydroxy-6-((E)-4-hydroxystyryl)benzylidene)-2,5-dimethoxybenzohydrazide] | 0.97 | 1.30 | 1.22 | 0.11 | 0.16 | 0.15 |  | 42.2 ± 5.9 µM | 22.7 ± 2.25 µM | 15.9 ± 1.6 µM | 1.80 | 23.4 ± 1.31 µM | 12.2 ± 1.2 µM | 0.21 | > 200 µM | 99.4 ± 6.9 µM | 260 to 262 °C | 14.9 ± 1.3 µM
COc1ccc(C(=O)N/N=C/c2c(O)cc(O)cc2/C=C/c2ccc(O)cc2)cc1OC [6g, N′-((E)-2,4-dihydroxy-6-((E)-4-hydroxystyryl)benzylidene)-3,4-dimethoxybenzohydrazide] |  |  |  |  |  |  |  | 63.7 ± 5.27 µM | 33.2 ± 1.99 µM | 17.2 ± 2 µM |  | 37 ± 2.24 µM | 20.2 ± 2.7 µM |  | 191 ± 13 µM | 40.3 ± 2.7 µM |  | 17.7 ± 0.5 µM
COc1cc(OC)cc(C(=O)N/N=C/c2c(O)cc(O)cc2/C=C/c2ccc(O)cc2)c1 [6h, N′-((E)-2,4-dihydroxy-6-((E)-4-hydroxystyryl)benzylidene)-3,5-dimethoxybenzohydrazide] |  |  |  |  |  |  |  | 43.2 ± 4.02 µM | 22.8 ± 1.31 µM | 14 ± 1.2 µM |  | 29.1 ± 1.31 µM | 7.2 ± 2 µM |  | 126 ± 20.9 µM | 26 ± 3.2 µM |  | 4.5 ± 0.6 µM
O=C(N/N=C/c1ccccc1OCc1ccccc1)c1ccncc1 [C] |  |  |  |  |  |  | 3.1 µM |  |  |  |  |  |  |  |  |  |  | 
O=C(N/N=C/c1c(O)ccc2ccccc12)c1ccncc1 [D] |  |  |  |  |  |  | 0.29 µM |  |  |  |  |  |  |  |  |  |  | 
Cc1ncc(CO)c(/C=N/NC(=O)c2ccncc2)c1O [PIH, pyridoxal isonicotinoyl hydrazone, reference compound] | 1.10 | 0.67 | 0.90 | 1.53 | 0.63 | 0.85 |  | > 200 µM | > 200 µM | 75.3 ± 6.4 µM | 0.86 | > 200 µM | 112 ± 5.9 µM | 1.19 | > 200 µM | 119 ± 7 µM |  | 101 ± 10.8 µM
Oc1ccc(/C=C/c2cc(O)cc(O)c2)cc1 [RESV, resveratrol] | 0.77 | 0.52 | 0.16 | 0.22 | 0.45 | 0.14 |  | > 200 µM |  | 64 ± 8.9 µM | 1.49 |  |  | 0.42 | > 200 µM |  |  | 20.2 ± 2.7 µM
NC(=S)N/N=C/c1c(O)cc(O)cc1/C=C/c1ccc(O)cc1 [compound 8, 2-((E)-2,4-dihydroxy-6-((E)-4-hydroxystyryl)benzylidene)hydrazine-1-carbothioamide] | 1.02 | 0.89 | 0.77 | 0.41 | 0.57 | 0.50 |  | 60.1 ± 3.99 µM | 41.9 ± 2.83 µM | 36.7 ± 3.8 µM | 1.47 | 41 ± 3.93 µM | 41.2 ± 2.3 µM | 0.59 | 102 ± 3.5 µM | 64.1 ± 2.9 µM | 242 to 244 °C | 31.8 ± 1.4 µM
